Experimental data taken from patent US20100273780A1, “SUBSTITUTED 8-HETEROARYL XANTHINES” (PGXHEALTH, LLC, priority 2003, published 2010).

Molecular target: T1, rat A2B receptors (rA2B) (Rattus norvegicus, UniProt P29276)
T1 construct: expressed in transfected cells; host or cells: HEK-293 cells, stably transfected (G418 selection); membranes
T1 sequence (P29276 1-332): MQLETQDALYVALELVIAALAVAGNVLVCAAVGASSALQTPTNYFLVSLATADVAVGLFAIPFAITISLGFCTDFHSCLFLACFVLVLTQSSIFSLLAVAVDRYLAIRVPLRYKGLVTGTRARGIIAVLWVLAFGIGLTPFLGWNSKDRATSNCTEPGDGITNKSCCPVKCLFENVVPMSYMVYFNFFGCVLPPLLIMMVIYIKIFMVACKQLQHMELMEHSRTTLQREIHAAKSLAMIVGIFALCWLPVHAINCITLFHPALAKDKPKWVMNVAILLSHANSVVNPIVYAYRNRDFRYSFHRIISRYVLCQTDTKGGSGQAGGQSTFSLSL
Experiment: Radioligand competition binding (125I-ABOPX) at rat A2B receptors in HEK-293 membranes
Details: displacement of specific [125I]ABOPX binding at rat A2B receptors expressed in HEK-293 cells; read-out: RatA2B Ki
Experimental: The plasmid was amplified in competent JM109 cells and plasmid DNA isolated using Wizard Megaprep columns (Promega Corporation, Madison, Wis.).
Transfected HEK cells were grown under 5% CO2/[…] humidified atmosphere at a temperature of 37° C. Colonies were selected by growth of cells in 0.6 mg/mL G418. Transfected cells were maintained in DMEM supplemented with Hams F12 nutrient mixture (1/1), 10% newborn calf serum, 2 mM glutamine and containing 50 IU/mL penicillin, […], and 0.2 mg/mL Geneticin (G418, Boehringer Mannheim). Cells were cultured in 10 cm diameter round plates and subcultured when grown confluent (approximately after 72 hours).
At A2B receptors: Confluent monolayers of HEK-A2B cells were washed with PBS followed by ice cold Buffer A (10 mM HEPES, 10 mM EDTA, pH 7.4) with protease inhibitors (10 μg/mL benzamidine, 100 μM phenylmethanesulfonyl fluoride, and 2 μg/mL of each aprotinin, pepstatin and leupeptin). The cells were homogenized in a Polytron (Brinkmann) for 20 s, centrifuged at 30,000×g, and the pellets washed twice with buffer HE (10 mM HEPES, 1 mM EDTA, pH 7.4 with protease inhibitors). The final pellet was resuspended in buffer HE, supplemented with 10% sucrose and frozen in aliquots at −80° C. For binding assays membranes were thawed and diluted 5-10 fold with HE to a final protein concentration of approximately 1 mg/mL. To determine protein concentrations, membranes, and bovine serum albumin standards were dissolved in 0.2% NaOH/0.01% SDS and protein determined using fluorescamine fluorescence. Stowell, C.
After incubation, 20 minutes at room temperature, 50 μL, of 10 mg/mL Na-metabisulfite in water was added to quench the reaction. The reaction mixture was applied to a C18 HPLC column, eluting with a mixture of methanol and 5 mM phosphate, pH 6.0. After 5 min at 35% methanol, the methanol concentration was ramped to 100% over 15 min.
Radioligand binding experiments were performed in triplicate with 20-25 μg membrane protein in a total volume of 0.1 mL HE buffer supplemented with 1 U/mL adenosine deaminase and 5 mM MgCl2. The incubation time was 3 h at 21° C. Nonspecific binding was measured in the presence of 100 μM NECA. […] Membranes were filtered on Whatman GF/C filters using a Brandel cell harvester (Gaithersburg, Md.) and washed 3 times over 15-20 seconds with ice cold buffer (10 mM Tris, 1 mM MgCl2, pH 7.4). Bmax and KD values were calculated by Marquardt's nonlinear least squares interpolation for single a site binding models. Marquardt, D. M., J. Soc. Indust. Appl. […] Ki values for different compounds were derived from IC50 values as described. Linden, J., J. Cycl. Nucl. […] Data from replicate experiments are tabulated as means±SEM.

Structure (SMILES)	Ki
CCCn1c(=O)c2[nH]c(-c3ccc(N4CCCN(C)CC4)nc3)nc2n(CCC)c1=O [Compound 9, 1,3-Dipropyl-8-{6-[4-methyl(perhydro-1,4-diazaepin-1-yl)]-3pyridyl}xanthine]	< 100 nM
CCCn1c(=O)c2[nH]c(-c3ccc(N4CCN(C(C)=O)CC4)nc3)nc2n(CCC)c1=O [Compound 5, 1,3-Dipropyl-8-[6-(4-acetylpiperazinyl)-3-pyridyl]xanthine]	< 500 nM
CCn1c(=O)c2[nH]c(-c3ccc(N(CC4CC4)C(=O)c4cccnc4)nc3)nc2n(CC)c1=O [Compound 144, 1,3-Diethyl-8-[6-[N-nicotinoylcyclopropylmethylamino]-3-pyridyl)xanthine]	< 500 nM
CCCn1c(=O)c2[nH]c(-c3ccc(Cl)nc3)nc2n(CCC)c1=O [Compound 1, 1,3-Dipropyl-8-(6-chloro-3-pyridyl)xanthine]	< 500 nM

The remaining lines, values ahead:

Ki	Structure (SMILES)
< 500 nM	CCCn1c(=O)c2[nH]c(-c3ccc(NCC(OC)OC)nc3)nc2n(CCC)c1=O [Compound 14, 1,3-Dipropyl-8-[6-(2,2-dimethoxyethyl)amino-3-pyridyl]xanthine]
< 5000 nM	CCCn1c(=O)c2[nH]c(-c3ccc(NC4CCCC4)nc3)nc2n(CCC)c1=O [Compound 39, 1,3-Dipropyl-8-[6-(cyclopentylamino)-3-pyridyl]xanthine]
